The values that follow come from publication PMC11477289, “Low-Basicity 5-HT6 Receptor Ligands from the Group of Cyclic Arylguanidine Derivatives and Their Antiproliferative Activity Evaluation” (International Journal of Molecular Sciences, 2024).

SMILES strings stand for the structures. Several values for one entry are separate records, joined by “and”; a condition that tells them apart may be missing. Equal entries are not always repeated.

In series [1] the target is T1, human 5-HT6 (Homo sapiens, UniProt P50406).
T1 construct: expressed in transfected cells
The experiment in a line: [3H]-LSD radioligand binding assay, 5-HT6R. The note with it: HEK293 expressing human 5-HT6R, read-out: 5-HT6 Ki. Here is the method: Next, the ligands’ affinity for the 5-HT6 receptors was evaluated in the [^3H]-LSD radioligand binding assay. Experiments were performed in a stable HEK293 cell line expressing the human 5-HT6R.
The pellets were stored at −80 °C.

Series [2] in a line: Chromatographic hydrophobicity index on C18 column (lipophilicity). It counts as physicochemical.
Series [3] is described as follows: Affinity to phospholipids, IAM column (CHI IAM). It counts as physicochemical. The note with it: IAM.PC.DD2 column, pH 7.4.
Source text: We began with an assay for lipophilicity, affinity for phospholipids (for 40 compounds), and drug binding to human serum albumin (HSA) (for 20 compounds), using chromatographic protocols developed by Valko [46] and implemented in our laboratory [47]. […] These methods allowed the determination of chromatographic hydrophobicity indices (CHIs), binding to HSA (%HSA), and phospholipids (CHIIAM) using a single-gradient elution experiment and comparison to reference substances.
Series [4] concerns the target human serum albumin (HSA) (Homo sapiens, UniProt P02768). Nature of the series: Binding to HSA, Chiralpak HSA column. The note with it: Chiralpak HSA column. From the text:
We began with an assay for lipophilicity, affinity for phospholipids (for 40 compounds), and drug binding to human serum albumin (HSA) (for 20 compounds), using chromatographic protocols developed by Valko [46] and implemented in our laboratory. Compounds with the highest affinity for 5-HT6R and those showing the most promising ADMET parameters, including the possibility of BBB penetration, DDI, and lipophilicity, determined in silico in SwissADME [45], were selected for testing. These methods allowed the determination of chromatographic hydrophobicity indices (CHIs), binding to HSA (%HSA), and phospholipids (CHIIAM) using a single-gradient elution experiment and comparison to reference substances.
The use of columns modified with plasma proteins, such as HSA, also allows for the estimation of binding to HSA, which is the most dominant plasma protein (PP). Binding to PP affects drug pharmacokinetics, such as distribution, half-life, and clearance.
The mobile phase flow rate was 1.5 mL/min, and the column was maintained at 30 °C. • Chiralpak® HSA (50 mm × 4 mm; 5 µm with safety guard column; Daicel Chiral Technologies, West Chester, PA, USA), mobile phase A: 50 mM ammonium acetate, mobile phase B: HPLC-grade isopropanol (VWR International, Leuven, Belgium). For the first 15 min, the linear gradient from 0 to 20% isopropanol was applied and then held at 20% isopropanol for 12 min. In the last 5 min of the sequence, the mobile phase mixture received a pure ammonium acetate solution. The column temperature was held at 30 °C, whereas the flow rate was 0.9 mL/min.
The reference substances for the calibration of HSA, C18, and IAM columns were purchased, respectively: acetanilide, butyrophenone, diclofenac, and octanonophenone (Alfa Aesar, Haverhill, MA, USA); acetophenone, benzimidazole, colchicine, indole, indometacin, paracetamol, and theophylline (Sigma-Aldrich, Steinheim, Germany); nicardipine and nizatidine (Cayman Chemical, Ann Arbor, MI, USA); carbamazepine, heptanophenone, hexanophenone, propiophenone, and valerophenone (Acros Organic, Pittsburg, PA, USA). Before chromatographic experiments, solutes were dissolved in dimethyl sulfoxide (Avantor Performance Materials Poland S.A., Gliwice, Poland) to obtain a 200 µg/mL concentration. The detection was performed in the UV region at the wavelength from 190 nm to 300 nm. The injected volume was 5 μL, and each compound was analyzed in triplicate.

Series [5] concerns U87MG glioblastoma cells. Nature of the series: Antiproliferative activity (MTS), U87MG. Conditions: Homo sapiens, U-87 MG, 72 h, read-out: IC50 Values U87MG.
Series [6] has as its system 1321N1 astrocytoma cell line. Nature of the series: Antiproliferative activity (MTS), 1321N1. The note with it: Homo sapiens, 1321-N1, 72 h, read-out: IC50 Values 1321N1.

Sequence of human serum albumin (HSA) (P02768 25-609): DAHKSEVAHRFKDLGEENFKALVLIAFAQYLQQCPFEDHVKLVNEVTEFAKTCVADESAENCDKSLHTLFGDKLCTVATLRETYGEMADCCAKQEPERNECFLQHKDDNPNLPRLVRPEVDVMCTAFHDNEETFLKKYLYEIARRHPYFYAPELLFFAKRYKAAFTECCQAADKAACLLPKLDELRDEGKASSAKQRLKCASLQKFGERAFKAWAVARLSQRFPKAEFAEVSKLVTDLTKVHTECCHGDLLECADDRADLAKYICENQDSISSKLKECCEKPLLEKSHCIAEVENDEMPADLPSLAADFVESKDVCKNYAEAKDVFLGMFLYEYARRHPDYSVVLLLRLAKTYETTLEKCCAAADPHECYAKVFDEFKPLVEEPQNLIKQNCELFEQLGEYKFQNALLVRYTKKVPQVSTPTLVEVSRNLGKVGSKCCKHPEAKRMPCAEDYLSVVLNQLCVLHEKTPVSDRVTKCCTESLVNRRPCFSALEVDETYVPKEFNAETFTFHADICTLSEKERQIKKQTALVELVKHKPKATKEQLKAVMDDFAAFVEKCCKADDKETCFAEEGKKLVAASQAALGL
T1 sequence (P50406 whole entry): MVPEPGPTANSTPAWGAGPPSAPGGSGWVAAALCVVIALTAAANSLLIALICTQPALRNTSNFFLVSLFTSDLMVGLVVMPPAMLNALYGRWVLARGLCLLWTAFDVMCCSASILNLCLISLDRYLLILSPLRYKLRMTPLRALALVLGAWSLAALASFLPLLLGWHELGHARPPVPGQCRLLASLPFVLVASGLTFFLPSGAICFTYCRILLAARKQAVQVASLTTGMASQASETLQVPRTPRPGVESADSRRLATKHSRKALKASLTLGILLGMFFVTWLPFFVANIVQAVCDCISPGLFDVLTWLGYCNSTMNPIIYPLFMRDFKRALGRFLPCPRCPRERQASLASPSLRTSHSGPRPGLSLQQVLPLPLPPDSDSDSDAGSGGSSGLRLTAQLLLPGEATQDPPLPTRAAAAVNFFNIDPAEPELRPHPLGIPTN

Turning to `O=S(=O)(NC1=Nc2ccccc2CN1)c1ccc(OC(F)(F)F)cc1` [PR 17, N -(3,4-dihydroquinazolin-2-yl)-4-(trifluoromethoxy)benzene-1-sulfonamide], the melting point lay within 161 to 163 °C. The Ki in series [1] amounted to 9850 ± 2460 nM. In series [2], the “CHI C18 pH 2.6” value is listed as 94.2, the “CHI C18 pH 7.4” value is given as 93.2 and the “CHI C18 pH 10.5” value was 95.0. Moreover, the “CHI IAM” value in series [3] is reported as 38.7. In addition, in series [4], the “%HSA” value is reported as 93.7% and the logKHSA is given as 1.1. In addition, in series [5], the IC50 was over 25 µM. Also, the IC50 in series [6] is over 25 µM.

Regarding `Cc1cccc2c1CNC(NS(=O)(=O)c1cccc3ccccc13)=N2` [PR 61, N -(5-methyl-3,4-dihydroquinazolin-2-yl)naphthalene-1-sulfonamide], the melting point fell in the range of 233 to 237 °C. The Ki in series [1] is 412 ± 95 nM. Moreover, in series [2], the “CHI C18 pH 2.6” value is 93.1, the “CHI C18 pH 7.4” value came out at 91.8 and the “CHI C18 pH 10.5” value turned out to be 94.2. Further, the “CHI IAM” value in series [3] worked out at 41.4. Further, in series [4], the “%HSA” value came out at 97.3% and the logKHSA worked out at 1.4. The IC50 in series [5] is over 25 µM. Further, the IC50 in series [6] is over 25 µM.

The compound `CC1NC(NS(=O)(=O)c2cccc3ccccc23)=Nc2ccc(Br)cc21` (centres unmarked) [PR 75, N -(6-bromo-4-methyl-3,4-dihydroquinazolin-2-yl)naphthalene-1-sulfonamide] returned a melting point of 119 to 123 °C. For the same compound, the inhibition constant Ki in series [1] amounted to 484 ± 121 nM. Also, in series [2], the “CHI C18 pH 2.6” value worked out at 103.2, the “CHI C18 pH 7.4” value is on record as 101.2 and the “CHI C18 pH 10.5” value was determined as 105.6. In series [3], the “CHI IAM” value was found to be 46.3. Further, in series [4], the “%HSA” value is reported as 98.3% and the logKHSA was 1.6. Further, the IC50 in series [5] is over 25 µM. In addition, the IC50 in series [6] is over 25 µM.

Compound `Nc1nc2ccccc2n1S(=O)(=O)c1cccc2cccnc12` [PR 9, 1-(quinoline-8-sulfonyl)-1H-1,3-benzodiazol-2-amine] showed a melting point of 254 to 256 °C. Besides, in series [1], the Ki was 318 ± 18 nM. Moreover, in series [2], the “CHI C18 pH 2.6” value worked out at 75.1, the “CHI C18 pH 7.4” value is given as 79.2 and the “CHI C18 pH 10.5” value is on record as 79.6. Also, in series [3], the “CHI IAM” value is reported as 35.7. Moreover, in series [4], the “%HSA” value is listed as 94.3% and the logKHSA is 1.1. Also, in series [5], the IC50 is over 25 µM. For the same compound, in series [6], the IC50 is over 25 µM.

Regarding `O=S(=O)(NC1=Nc2ccccc2CN1)c1c(Cl)ccc2ccccc12` [PR 41, 2-chloro-N-(3,4-dihydroquinazolin-2-yl)naphthalene-1-sulfonamide], the melting point lay within 241 to 244 °C. In addition, the Ki in series [1] worked out at 210 ± 48 nM. Further, in series [2], the “CHI C18 pH 2.6” value is listed as 95.8, the “CHI C18 pH 7.4” value stood at 93.1 and the “CHI C18 pH 10.5” value came to 96.2. For the same compound, the “CHI IAM” value in series [3] stood at 42.9. In series [4], the “%HSA” value worked out at 97.1% and the logKHSA came out at 1.4. Moreover, in series [5], the IC50 is over 25 µM. The IC50 in series [6] was over 25 µM.

`O=S(=O)(NC1=Nc2ccccc2CN1)c1ccc(Cl)c2ccccc12` [PR 42, 4-chloro-N-(3,4-dihydroquinazolin-2-yl)naphthalene-1-sulfonamide] displayed a melting point of 188 to 191 °C. The Ki in series [1] came out at 268 ± 63 nM. Also, in series [2], the “CHI C18 pH 2.6” value worked out at 100.1, the “CHI C18 pH 7.4” value is reported as 99.2 and the “CHI C18 pH 10.5” value was 101.6. Besides, the “CHI IAM” value in series [3] came to 45.5. In series [4], the “%HSA” value is 97.9% and the logKHSA is 1.5. Also, the IC50 in series [5] is over 25 µM. Moreover, in series [6], the IC50 was over 25 µM.

In turn, `O=S(=O)(NC1=Nc2c(Cl)cc(Cl)cc2CN1)c1cccc2ccccc12` [PR 51, N -(6,8-dichloro-3,4-dihydroquinazolin-2-yl)naphthalene-1-sulfonamide] gave a melting point of 214 to 219 °C. In addition, the Ki in series [1] stood at 866 ± 199 nM. In series [2], the “CHI C18 pH 2.6” value was 108.2, the “CHI C18 pH 7.4” value was found to be 106.2 and the “CHI C18 pH 10.5” value was found to be 110.1. Moreover, in series [3], the “CHI IAM” value stood at 48.4. For the same compound, in series [4], the “%HSA” value is 99.0% and the logKHSA was 1.7. In addition, the IC50 in series [5] was over 25 µM. Moreover, in series [6], the IC50 is over 25 µM.

The compound `CC1NC(NS(=O)(=O)c2ccc(Cl)c3ccccc23)=Nc2c(Cl)cc(Cl)cc21` (centres unmarked) [PR 74, 4-chloro-N-(6,8-dichloro-4-methyl-3,4-dihydroquinazolin-2-yl)naphthalene-1-sulfonamide] gave a melting point of 215 to 219 °C. In series [1], the inhibition constant (Ki) was 1040 ± 260 nM. In series [2], the “CHI C18 pH 2.6” value was 125.7; the “CHI C18 pH 7.4” value was 123 and 123.9; the “CHI C18 pH 10.5” value worked out at 128.1. In addition, the “CHI IAM” value in series [3] is 55.5. Further, in series [4], the “%HSA” value turned out to be 99.9% and the logKHSA is 2.0. Also, in series [5], the IC50 was determined as 17 ± 0.4 µM. In addition, in series [6], the IC50 was determined as 13.4 ± 0.8 µM.

In turn, `O=S(=O)(NC1=Nc2cccc(F)c2CN1)c1cccc2ccccc12` [PR 54, N -(5-fluoro-3,4-dihydroquinazolin-2-yl)naphthalene-1-sulfonamide] registered a melting point of 191 to 193 °C. Also, the Ki in series [1] was 381 ± 88 nM. For the same compound, in series [2], the “CHI C18 pH 2.6” value amounted to 90.8, the “CHI C18 pH 7.4” value amounted to 89.4 and the “CHI C18 pH 10.5” value stood at 92.4. The “CHI IAM” value in series [3] was 40.8. Further, in series [4], the “%HSA” value is 96.4% and the logKHSA amounted to 1.3. In addition, the IC50 in series [5] is over 25 µM. The IC50 in series [6] was over 25 µM.

In turn, `O=S(=O)(NC1=Nc2ccc(Cl)cc2CN1)c1cccc2ccccc12` [PR 47, N -(6-chloro-3,4-dihydroquinazolin-2-yl)naphthalene-1-sulfonamide] displayed a melting point of 275 to 277 °C. The Ki in series [1] came out at 341 ± 76 nM. In addition, in series [2], the “CHI C18 pH 2.6” value was determined as 96.5, the “CHI C18 pH 7.4” value was 95.3 and the “CHI C18 pH 10.5” value is given as 98.1. For the same compound, the “CHI IAM” value in series [3] is on record as 44.0. In addition, in series [4], the “%HSA” value came out at 97.8% and the logKHSA turned out to be 1.5. Further, in series [5], the IC50 is over 25 µM. The IC50 in series [6] was over 25 µM.

Compound `O=S(=O)(NC1=Nc2ccccc2CN1)c1cccc2cc(Cl)ccc12` [PR 44, 6-chloro-N-(3,4-dihydroquinazolin-2-yl)naphthalene-1-sulfonamide] registered a melting point of 210 to 212 °C. In addition, the Ki in series [1] is 282 ± 65 nM. In series [2], the “CHI C18 pH 2.6” value is 98.2, the “CHI C18 pH 7.4” value is recorded as 96.5 and the “CHI C18 pH 10.5” value is 99.5. The “CHI IAM” value in series [3] was 44.3. Also, in series [4], the “%HSA” value worked out at 98.3% and the logKHSA is on record as 1.6. Further, the IC50 in series [5] is over 25 µM. For the same compound, the IC50 in series [6] was over 25 µM.

Broadly, the Ki is a dissociation constant, usually derived from enzyme kinetics or from competition with a known ligand. Usually melting point stands for the temperature of the solid-liquid transition. The term IC50 denotes the concentration that inhibits the measured activity by half.
